From patent US10071042B2, “External dermatological agent for anti-ageing” (Hayashibara Co., Ltd., priority 2014, dated 2018)

Experiments:
matrix metalloprotease-1 = assay: Matrix metalloprotease-1 production of NHDF after IL-1β, ELISA (Experiments 5 and 9); type: cell-based, human; conditions: 200 μM, single use; reduction against control
Experimental: Normal human dermal fibroblasts (NHDF), which had been suspended in a Dulbecco's Modified Eagle Medium supplemented with 10% fetal calf serum to give a concentration of 2.5×10^5 cells/mL, were placed in 96-well microplates by 0.1 mL/well and cultured until reaching a confluent state over the bottom of each well. Thereafter, the medium in each well was replaced with a fresh serum-free culture medium and culture for another 24 hours, added with any one of the test substances in Table 6 at each concentration shown in the table, and cultured for additional 24 hours. Then, the resulting cell cultures were added with human IL-1β to give a final concentration of 1 ng/ml, followed by culturing the cells for another 24 hours. After completion of the culture, matrix metalloprotease-1 in the supernatant in each well was detected with an enzyme-linked immuno sorbent assay (ELISA), commercialized by R & D Systems, Inc., MN, USA, developed coloration with tetramethylbenzidine, and measured for absorption at a wavelength of 450 nm. A control system was provided similarly as above except for not adding any test substance, and determined for the activity of matrix metalloprotease-1 similarly as in the above to be regarded as 100%. The production level of matrix metalloprotease-1 for each test substance was comparatively evaluated based on the following equation. Equation: Production level of matrix metalloprotease-1 (relative value (%))=[(Absorbance of a sample with any one of test substances)/(Absorbance of control)]×100
The experiment was repeated three times, and the data were compared to that of control with the Dunnett's multiple comparisons test. The symbol “*” means a level of significance of p<0.01.
Except for adding the test substances listed in Table 12 at respective concentrations shown in the table, experiments were respectively conducted in accordance with the methods in Experiment 5 disclosed in the specification to examine the effect of the combination use with ascorbic acid 2-glucoside used as a skin whitener in cosmetics on the action of anti-wrinkles by analogues of adenosine N1-oxide 5′-phosphate. A control system was provided and similarly treated as above except for not adding any test substance. The reduction rate of the production level of matrix metalloprotease-1 against that of control based on the following equation. Equation: Reduction rate of the production level of matrix metalloprotease−1(%)=100−[(Absorbance of a sample with any one of test substances)/(Absorbance of control)]×100

filaggrin protein = assay: Expression of filaggrin protein, Western blot filaggrin/actin (Experiment 3); type: cell-based, human; conditions: 0.5 mM (positive control); control = 100%
Experimental: Then, the expression of filaggrin was induced in such a manner of further culturing the cells for another four days, while replacing the culture medium with an EpiLife medium supplemented with 2 μM, 5 μM, or 10 μM of sodium adenosine N1-oxide 5′-phosphate every three days. […] After four days culture, the resultant cells were washed with Dulbecco's phosphate buffered saline, added with 0.1 mL of an SDS sample buffer (pH 6.8) containing 62.5 mM Tris-HCl, 2% SDS, 10% glycerol, and 50 mM DTT along with a protease inhibitor, and collected with a cell scraper. The collected cells were boiled for 10 min, disrupted ultrasonically, and quantified with “Pierce BCA Protein Assay Kit”, commercialized by ThermoFisher Scientific K. K., Yokohama, Japan. A prescribed amount of the resulting disrupted cells was sampled and subjected to SDS-polyacrylamide gel electrophoresis in an amount of 100 μg/lane, and the resulting gel was transferred to a PVDF membrane. The resulting transferred PVDF membrane was blocked with “Block Ace”, commercialized by DS Pharma Biomedical Co., Ltd., Osaka, Japan, reacted with a 200-fold dilution of “AKH1”, a mouse anti-filaggrin antibody, commercialized by, Santa Cruz Biotechnology Inc., CA, USA, or a 20,000-fold dilution of “MAB1501”, a mouse actin antibody, commercialized by Chemicon International Inc., MA, USA, as a first antibody, and then reacted with a 2,000-fold dilution of “P0447”, an HRP-labeled anti-mouse immunoglobulin, commercialized by Dako Japan, Tokyo, Japan, as a secondary antibody. After the reaction, by using ECL Plus Western Blotting Detection System, commercialized by GE Healthcare Japan, Tokyo, Japan, bands were detected on “Hyperfilm ECL”, a chemiluminescent film commercialized by GE Healthcare Japan, Tokyo, Japan. The detected bands were analyzed and quantified with “Image J”, an image analyzing software. A control system with no addition of any of the test substances was provided and the increasing intensity ratio of a band of filaggrin/actin was regarded as 100%, with which data for the increased percentages of the intensity ratios of bands of filaggrin/actin of the test substances were comparatively evaluated.

[1] = system: normal human epidermal keratinocytes; assay: Production level of cornified envelope, absorbance 310 nm (Experiments 1-2 and 7); type: cell-based; conditions: single use, increase over control
Experimental: Normal human epidermal keratinocytes were cultured similarly as in Experiment 1-1, except for adding the test substances listed in Table 2 at prescribed concentrations to the cells. The resulting cultured cells were washed once with phosphate buffered saline (PBS), followed by scrapping off the cells adhered to each culture plate by adding 0.5 mL of PBS to each well of the plates. The cell suspensions thus obtained were added with 10% sodium lauryl sulfate solution in a volume of ¼ of each of the suspension volumes, followed by stirring and freezing the resulting mixtures at −80° C. After thawing, the resulting mixtures were centrifuged at 12,000×g for 15 min, followed by collecting the cell precipitates which were then washed once with phosphate buffered saline containing 2% sodium lauryl sulfate. The resulting mixtures were centrifuged at 12,000×g for 15 min, followed by collecting the cells and suspending the collected cells with phosphate buffered saline containing 2% sodium lauryl sulfate and 20 mM dithiothreitol. The resulting cell suspensions were boiled in a boiling water bath for one hour and measured for absorbance at a wavelength of 310 nm to determine the production level of cornified envelope for each test system added with any of the test substances. A control system was provided similarly as above except for not adding any one of the test substances to the system, and determined for absorbance at a wavelength of 310 nm similarly as in the above to be regarded as 100%. The production level of cornified envelope for each test substance was relatively evaluated based on the following equation. Equation: Production level of cornified envelope (Relative value (%))=[(Absorbance of a sample with any one of test substances)/(Absorbance of Control)]×100
(§1) The experiment was repeated three times, and the data was subjected to the Dunnett's multiple comparisons with Control. The symbol “*” means a level of significance of p<0.01.
(§2) Except for adding the test substances listed in Tables 8 and 9 at respective concentrations shown in the tables, experiments were respectively conducted in accordance with the methods in Experiments 1-2 and 1-3 disclosed in the specification to examine the effect of the combination use of epigallocatechin gallate, which is used as an antioxidant for cosmetics, and sodium adenosine N1-oxide 5′-phosphate on the action of accelerating the cornified-envelope production and the action of enhancing the transglutaminase activity of sodium adenosine N1-oxide 5′-phosphate. A control system was provided and similarly treated as above except for not adding any test substance and was determined for both the increase rates of cornified-envelope production level and the transglutaminase activity, based on the following equations. Equation: Increase rate of cornified envelope production level (%)={[(Absorbance of a sample with any one of test substances)/(Absorbance of control)]×100}−100 Equation: Increase rate of transglutaminase (%)={[(Absorbance of a sample with any one of test substances)/(Absorbance of control)]×100}−100

transglutaminase = assay: Transglutaminase activity, fluorescein cadaverine uptake (Experiments 1-3 and 7); type: cell-based, human; conditions: single use, increase over control
Experimental: Normal human epidermal keratinocytes were cultured similarly as in Experiment 1-1, except for adding the test substances as listed in Table 3 to respective culture systems. The cultured normal human epidermal keratinocytes were added with 100 μM of fluorescein cadaverine and allowed to stand for four hours. Thereafter, the resulting cells were washed once with phosphate buffered saline and further treated with cold methanol for 10 min for cell fixation. The fixed cells were washed thrice with cold methanol, followed by the addition of phosphate buffered saline. Fluorescein cadaverine taken in the cells via transglutaminase was analyzed with Cell Imaging Station, commercialized by Molecular Probes Life Technology, France, and the analyzed fluorescent intensities were regarded as transglutaminase activities. There was provided a control system similarly as in the above, except for not adding any of the test substances. The transglutaminase activity of each test substance was evaluated as a relative value determined with the following equation using the fluorescent intensity of the control system being regarded as 100%. Equation: Transglutaminase activity (relative value (%))=[(Fluorescent intensity of a sample with any one of test substances)/(Fluorescent intensity of control)]×100
as §1, §2

[2] = system: human epidermoid carcinoma cell line A-431; assay: Tight-junction function, lucifer yellow transmittance (Experiments 2 and 8); type: cell-based; conditions: 3 mM, single use; reduction against control
Source text: A human epidermoid carcinoma cell line A-431 was suspended in a media, supplemented with any of the test substances disclosed in Table 4 and having respective concentrations as indicated in the table, to give a cell concentration of 1×10^5 cells/mL, and each cell suspension was placed in an insert cup for a 12-well culture plate by two milliliters per well, followed by culturing the cells until reaching a confluent state through over the bottom surface of each well. The inner and the outer cup volumes were adjusted to give two milliliters while checking both the liquid levels of the cups were constant, and lucifer yellow as a model for permeating substance, commercialized by Life Technologies Corporation, CA, USA, was added to each inner cup to give a final concentration of 100 μM. Thereafter, the fluorescent intensities of lucifer yellow in the culture media in both the inner and the outer cups were measured, followed by calculating the percentage of the fluorescent intensity of the outer cup against that of the sum of the outer and the inner cups for use as a transmittance of lucifer yellow with the following equation. Equation: Transmittance of lucifer yellow (%)={(Absorbance of a liquid outside of an insert cup)/[(Absorbance of a liquid inside of the insert cup)+(Absorbance of the liquid outside of the insert cup)]}×100
There was provided a control system prepared similarly as above except for not adding any of the test substances, and the transmittance of lucifer yellow was regarded as 100% for evaluating the reduction of transmittance due to the reinforcement of the function of tight junction, based on the following equation. Equation: Relative transmittance (Relative percentage (%)) of lucifer yellow=[(Transmittance of a sample with any one of test substances)/(Transmittance of control)]×100
The experiment was repeated three times, and the data was subjected to the Dunnett's multiple comparisons with control. The symbol “*” means a level of significance of p<0.01.
Except for adding the test substances listed in Table 11 at respective concentrations shown in the table, experiments were respectively conducted in accordance with the methods in Experiment 2 disclosed in the specification to examine the effect of the combination use with ethylenediaminetetraacetate used as a preservative for cosmetics on the action of reinforcing the function of tight junction by sodium adenosine N1-oxide 5′-phosphate. A control system was provided and similarly treated as above except for not adding any test substance. The reduction rate of relative transmittance of lucifer yellow against that of control based on the following equation. Equation: Reduction rate of relative transmittance of lucifer yellow (%)=100−[(Transmittance of a sample with any one of test substances)/(Transmittance of control)]×100

SMILES: O=C1O[C@H]([C@@H](O)CO)C(O)=C1O[C@H]1O[C@H](CO)[C@@H](O)[C@H](O)[C@H]1O [Ascorbic acid 2-glucoside, reference compound]
- Reduction rate of the production level of matrix metalloprotease-1 activity (%) (matrix metalloprotease-1): 2.1%

SMILES: [Ca+2].[Cl-].[Cl-] [CaCl2, calcium chloride, reference compound]
- Relative expression level of filaggrin protein (%) (filaggrin protein): 289%

SMILES: O=C(O[C@@H]1Cc2c(O)cc(O)cc2O[C@@H]1c1cc(O)c(O)c(O)c1)c1cc(O)c(O)c(O)c1 [Epigallocatechin gallate, reference compound]
- Increase rate of cornified envelope formation level (%) ([1]; 1.6 μM): 28.0%
- Increase rate of cornified envelope formation level (%) ([1]; 3.3 μM): 37.3%
- Increase rate of transglutaminase activity (%) (transglutaminase; 1.6 μM): 5.6%
- Increase rate of transglutaminase activity (%) (transglutaminase; 3.3 μM): 19.0%
- Increase rate of transglutaminase activity (%) (transglutaminase; 6.5 μM): 6.5%

SMILES: O=C(O)CN(CCN(CC(=O)O)CC(=O)O)CC(=O)O [Ethylenediaminetetraacetate, reference compound]
- Reduction rate of relative transmittance of lucifer yellow (%) [2]: −24.7%
